Results published in patent US20240327392A1, “HETEROCYCLOALKYL-SUBSTITUTED POLYHETEROAZOLE DERIVATIVES AS MEDICAMENTS FOR TREATING AND/OR PREVENTING RS VIRUS INFECTIONS” (ALBIUS SCIENCES ALPHA PRIVATE LIMITED, priority 2021, published 2024).

System: human RS virus A2 strain
Experiment: In vitro test for anti-RS virus proliferation inhibitory activity (quantitative RT-PCR of RS virus RNA copy number in infected Vero cells)
Assay type: cell-based
Settings: 72 h; Vero cells infected with human RS virus A2 strain, 3 days of incubation, RS virus N gene RNA copy number by quantitative RT-PCR; read-out: Anti-RS virus Activity
Outline: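 Vero cells infected with RSV A2 (1.7×10^4 TCID50/mL in inoculum mix) with compound in 10% FCS EMEM, 3 days at 37 °C, 5% CO2. Lysate viral N-gene RNA quantified by one-step SYBR qRT-PCR; copy number by comparative Ct relative to untreated infected cells.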

IC50 | Structure (SMILES)
< 10 µM | O=S(=O)(Cc1ccccc1)N1CCCC[C@H]1c1nc(CCCc2ccccc2)no1 [Compound 2E, 3-(3-phenylpropyl)-5-[(2S)-1-benzylsulfonylpiperidin-2-yl]-1,2,4-oxadiazole]
> 50 µM | CS(=O)(=O)N1CCC[C@H]1c1nc(CCCc2ccccc2)no1 [Compound 1C, 3-(3-phenylpropyl)-5-[(2S)-1-methanesulfonylpyrrolidin-2-yl]-1,2,4-oxadiazole]
> 50 µM | CS(=O)(=O)N1C[C@H](O)C[C@H]1c1nc(CCCc2ccccc2)no1 [Compound 3C, 3-(3-phenylpropyl)-5-[(2S,4R)-4-hydroxy-1-methanesulfonylpyrrolidin-2-yl]-1,2,4-oxadiazole]
10 to 50 µM | O=S(=O)(c1ccccc1)N1CCC[C@H]1c1nc(CCCc2ccccc2)no1 [Compound 1D, 3-(3-phenylpropyl)-5-[(2S)-1-benzenesulfonylpyrrolidin-2-yl]-1,2,4-oxadiazole]

Structure (SMILES) | IC50
CC(C)(C)OC(=O)N1CCCC[C@H]1c1nc(CCCc2ccccc2)no1 [Compound 2-1, 3-(3-phenylpropyl)-5-[(2S)-1-tert-butoxycarbonylpiperidin-2-yl]-1,2,4-oxadiazole] | 10 to 50 µM
CC(C)(C)O[C@@H]1C[C@@H](c2nc(CCCc3ccccc3)no2)N(S(=O)(=O)C2CCCCC2)C1 [Compound 4B, 3-(3-phenylpropyl)-5-[(2S,4R)-4-tert-butoxy-1-cyclohexylsulfonyl-pyrrolidin-2-yl]-1,2,4-oxadiazole] | < 10 µM
CC(C)(C)O[C@@H]1C[C@@H](c2nc(CCCc3ccccc3)no2)N(C(=O)c2ccc3cc(C(=O)N4C[C@H](OC(C)(C)C)C[C@H]4c4nc(CCCc5ccccc5)no4)ccc3c2)C1 [Compound 4-4, Naphthalene-2,6-diylbis (((2S,4R)-4-(tert-butoxy)-2-(3-(3-phenylpropyl)-1,2,4-oxadiazol-5-yl)pyrrolidin-1-yl)methanone)] | > 50 µM

Same assay, conditions: 72 h; Vero cells infected with human RS virus A2 strain, 3 days of incubation, RS virus RNA copy number by quantitative RT-PCR; read-out: Anti-RS virus Activity

IC50 | Structure (SMILES)
10 to 50 µM | Cc1oc([C@@H]2CCCCN2S(=O)(=O)C2CCCCC2)nc1C(=O)NCc1ccccc1 [Compound 34B, (S)—N-Benzyl-2-(1-(cyclohexylsulfonyl)piperidin-2-yl)-5-methyloxazole-4-carboxamide]
10 to 50 µM | O=C(NCc1noc([C@@H]2C[C@@H](c3ccccc3)CN2S(=O)(=O)c2ccc(F)cc2)n1)c1ccc2ccccc2n1 [Compound 45AJ, N-((5-((2S,4S)-1-((4-fluorophenyl)sulfonyl)-4-phenylpyrrolidin-2-yl)-1,2,4-oxadiazol-3-yl)methyl)quinoline-2-carboxamide]
< 10 µM | CC(C)(C)OC(=O)N1CCC(S(=O)(=O)N2C[C@H](c3ccccc3)C[C@H]2c2nc(CCCc3ccccc3)no2)CC1 [Compound 7AO]
10 to 50 µM | CC(C)(C)OC(=O)N1CCC(CS(=O)(=O)N2CC(CC3CCC3)CC2c2nc(CCCc3ccccc3)no2)CC1 (stereo not drawn) [Compound 6AN, tert-buthyl 4-(((4-(cyclobuthylmethyl)-2-(3-(3-phenylpropyl)-1,2,4-oxadiazole-5-yl)pyrrolidin-1-yl)sulfonyl)methyl)piperidin-1-carboxylate]
< 10 µM | CC(C)CS(=O)(=O)N1CC(CC2CCC2)CC1c1nc(CCCc2ccccc2)no1 (stereo not drawn) [Compound 6A, 3-(3-phenylpropyl)-5-(1-isobutylsulfonyl-4-cyclobutylmethylpyrrolidin-2-yl)-1,2,4-oxadiazole]
10 to 50 µM | CC(C)(C)OC(=O)N1C[C@H]2CC[C@]1(c1nc(CCc3ccccc3)no1)CC2 [Compound 15-1, Tert-butyl (1s,4s)-1-(3-phenethyl-1,2,4-oxadiazol-5-yl)-2-azabicyclo[2.2.2]octane-2-carboxylate]
> 50 µM | O=S(=O)(Cc1ccccc1)N1CC(c2ccccc2)C[C@H]1c1nc(CCCc2ccccc2)no1 (stereo in doubt) [Compound 7E, 3-(3-Phenylpropyl)-5-[(2S,4S)-1-benzylsulfonyl-4-phenylpyrrolidin-2-yl]-1,2,4-oxadiazole]
< 10 µM | CN(C)c1cccc2c(S(=O)(=O)N3CC4(CC4)C[C@H]3c3nc(CCCc4ccccc4)no3)cccc12 [Compound 5AL, (S)-N,N-dimethyll-5-((6-(3-(3-phenylpropyl)-1,2,4-oxadiazole-5-yl)-5-azaspiro[2.4]heptan-5-yl)sulfonyl)naphthalen-1-amine]
< 10 µM | COc1ccc(S(=O)(=O)N2C[C@H](F)C[C@H]2c2nc(CCCc3ccccc3)no2)cc1 [Compound 8AI, 5-((2S,4R)-4-fluoro-1-((4-methoxyphenyl)sulfonyl)pyrrolidin-2-yl)-3-(3-phenylpropyl)-1,2,4-oxadiazole]
< 10 µM | Cc1sc([C@@H]2CCCCN2S(=O)(=O)C2CCCCC2)nc1C(=O)O [Compound 36B, (S)-2-(1-(Cyclohexylsulfonyl)piperidin-2-yl)-5-methyl thiazole-4-carboxylic acid]
< 10 µM | COc1ccc(CCCc2noc([C@@H]3CCCCN3C(=O)OC(C)(C)C)n2)cc1OC [Compound 22-1, Tert-butyl (S)-2-(3-(3-(3,4-dimethoxyphenyl)propyl)-1,2,4-oxadiazol-5-yl)piperidine-1-carboxylate]
10 to 50 µM | O=C(NCc1noc([C@@H]2CCCN2S(=O)(=O)C2CCCCC2)n1)c1cccc2ccccc12 [Compound 11B, 3-[(1-naphthoylamino)methyl]-5-[(2S)-1-cyclohexylsulfonylpyrrolidin-2-yl]-1,2,4-oxadiazole]
< 10 µM | O=S(=O)(N1CCOCC1)N1CCCC[C@H]1c1nc(CCCc2ccccc2)no1 [Compound 2AE, (S)-4-((2-(3-(3-phenylpropyl)-1,2,4-oxadiazol-5-yl)piperidin-1-yl)sulfonyl)morpholine]
10 to 50 µM | CCOC(=O)C1CCN(S(=O)(=O)N2CC(CC3CCC3)CC2c2nc(CCCc3ccccc3)no2)CC1 (stereo not drawn) [Compound 6AC, ethyl 1-((4-(cyclobuthylmethyl)-2-(3-(3-phenylpropyl)-1,2,4-oxadiazole-5-yl)pyrrolidin-1-yl)sulfonyl)piperidin-4-carboxylate]
< 10 µM | O=C(c1ccccc1)N1CCC[C@H]1c1nc(CCCc2ccccc2)no1 [Compound 1S, (S)-Phenyl(2-(3-(3-phenylpropyl)-1,2,4-oxadiazol-5-yl)pyrrolidin-1-yl)methanone]
< 10 µM | O=S(=O)(c1ccc(F)cc1)N1CC(CC2CCC2)CC1c1nc(CCCc2ccccc2)no1 (stereo not drawn) [Compound 6AJ, 5-(4-(cyclobuthylmethyl)-1-((4-fluorophenyl)sulfonyl)pyrrolidin-2-yl)-3-(3-phenylpropyl)-1,2,4-oxsdiazole]
10 to 50 µM | O=S(=O)(C1CCOCC1)N1CC2(CC2)C[C@H]1c1nc(CCCc2ccccc2)no1 [Compound 5AP, (S)-3-(3-phenylpropyl)-5-(5-((tetrahydro-2H-pyran-4-yl)sulfonyl)-5-azaspiro[2.4]heptan-6-yl)-1,2,4-oxadiazole]
10 to 50 µM | CC(C)CS(=O)(=O)N1C[C@H](F)C[C@H]1c1nc(CCCc2ccccc2)no1 [Compound 8A, 3-(3-phenylpropyl)-5-[(2S,4R)-1-isobutylsulfonyl-4-fluoropyrrolidin-2-yl]-1,2,4-oxadiazole]
10 to 50 µM | CC(=O)N1CCCC[C@H]1c1nc(CCCc2ccccc2)no1 [Compound 2R]
< 10 µM | CC(C)CCN1CCC[C@H]1c1nc(CCCc2ccccc2)no1 [Compound 1T, (S)-5-(1-isopentylpyrrolidin-2-yl)-3-(3-phenylpropyl)-1,2,4-oxadiazole]
> 50 µM | CC(C)(C)NC(=O)N1C[C@H]2CC[C@]1(c1nc(CCc3ccncc3)no1)CC2 [Compound 13H, (1s, 4s)-N-(tert-butyl)-1-(3-(2-(pyridin-4-yl)ethyl)-1,2,4-oxadiazol-5-yl)-2-azabicyclo[2.2.2]octane-2-carboxamide]
< 10 µM | O=C(N1CC2(CC2)C[C@H]1c1nc(CCCc2ccccc2)no1)C(F)(F)F [5D′, 3-(3-Phenylpropyl)-5-{(6S)-5-trifluoroacetyl-5-azaspiro[2.4]hept-6-yl}-1,2,4-oxadiazole]
10 to 50 µM | CC(C)(C)OC(=O)NCc1ccc(CCCc2noc([C@@H]3CCCCN3S(=O)(=O)C3CCCCC3)n2)cc1 [Compound 30B]
< 10 µM | CN(C)c1ccc(S(=O)(=O)N2C[C@H](c3ccccc3)C[C@H]2c2nc(CCCc3ccccc3)no2)cc1 [Compound 7AK, N,N-dimethyl-4-(((2S,4S)-4-phenyl2-(3-(3-phenylpropyl)-1,2,4-oxadiazole-5-yl)pyrrolidin-1-yl)sulfonyl)aniline]
< 10 µM | CC(C)(C)OC(=O)N1[C@@H]2CC[C@@H](C2)[C@H]1c1nc(CCc2ccccc2)no1 [Compound 14-1, Tert-butyl (1R,3S,4S)-3-(3-phenethyl-1,2,4-oxadiazol-5-yl)-2-azabicyclo[2.2.1]heptane-2-carboxylate]

Structure (SMILES) | IC50
CC(C)(C)OC(=O)N1CC2(CC2)C[C@H]1c1nc(CCCc2ccccc2)no1 [Compound 5-1, 3-(3-phenylpropyl)-5-{(6S)-5-tert-butoxycarbonyl-5-azaspiro[2.4]hept-6-yl}-1,2,4-oxadiazole] | < 10 µM
CC(C)(C)OC(=O)N1C[C@@H](CC2CCC2)C[C@H]1c1nc(CCCc2ccccc2)no1 (racemic) [Compound 6-1, 3-(3-phenylpropyl)-5-(1-tert-butoxycarbonyl-4-cyclobutylmethylpyrrolidin-2-yl)-1,2,4-oxadiazole] | < 10 µM

Same assay, conditions: Vero, 72 h, read-out: Anti-RS virus Activity

Structure (SMILES) | IC50
O=S(=O)(N1CCCCC1)N1CCCC[C@H]1c1nc(CCCc2ccccc2)no1 [Compound 2AD, (S)-3-(3-phenylpropyl)-5-(1-(piperidine-1-ylsulfonyl)piperidin-2-yl)-1,2,4-oxadiazole] | < 10 µM
S=C(Nc1ccccc1)N1C[C@H](c2ccccc2)C[C@H]1c1nc(CCCc2ccccc2)no1 [Compound 7AQ, (2S,4S)—N,4-di phenyl-2-(3-(3-phenylpropyl)-1,2,4-oxadiazol-5-yl) pyrrolidine-1-carbothioamide] | 10 to 50 µM
